Experimental data reported in patent US9724352B2, “Pyrrolo[2,1-F[1,2,4]triazine compounds, preparation methods and applications thereof” (Shanghai Institute of Materia Medica, Chinese Academy of …, priority 2012, dated 2017).

Legend:
Test in all cases: Proliferation of human esophagus cancer cells
Format in all cases: cell-based
COLO680N = conditions: COLO-680N
Source text: (§1) Compounds BYL719 (shown below), CYH33 (compound I-33) and I-27 were selected to test their activity on the proliferation of 11 species of human esophagus cancer cells.
(§2) The results reported in FIG. 3 were the average GI50 value and SD value of three experiments. The results were arranged according to the GI50 value of CYH33.

KYSE450 = system: KYSE450
Source text: as §1, §2

KYSE70 = system: KYSE70
Source text: as §1, §2

KYSE510 = system: KYSE510
Source text: as §1, §2

KYSE150 = system: KYSE150
Source text: as §1, §2

Detroit 562 = system: Detroit 562
Source text: as §1, §2

KYSE140 = system: KYSE140
Source text: as §1, §2

Q: Which GI50 (COLO680N; 1st experiment) does the source give for `COC(=O)Nc1cc(C(F)(F)F)c(-c2nc(N3CCOCC3)c3cc(CN4CCN(S(C)(=O)=O)CC4)cn3n2)cn1` [Compound I-33, Methyl (5-(6-((4-(methylsulfonyl)piperazin-1-yl)methyl)-4-morpholinopyrrolo[2,1-f][1,2,4]triazin-2-yl)-4-(trifluoromethyl)pyridin-2-yl)carbamate] here?
A: Its GI50 is 743 nM.

Q: What about the GI50 (COLO680N; 2nd experiment) of the same molecule?
A: The GI50 was 530 nM.

Q: What about the GI50 (COLO680N; 3rd experiment) of the same molecule?
A: Its GI50 is 701 nM.

Q: What about the GI50 (COLO680N; mean of three experiments) of the same molecule?
A: Its GI50 is 658 nM.

Q: What about the GI50 (KYSE450; KYSE-450, KYSE450, 1st experiment) of the same molecule?
A: The GI50 was 1380 nM.

Q: What about the GI50 (KYSE450; KYSE-450, KYSE450, 2nd experiment) of the same molecule?
A: Its GI50 is 803 nM.

Q: And the GI50 (KYSE450; KYSE-450, KYSE450, 3rd experiment)?
A: The GI50 was 938 nM.

Q: What about the GI50 (KYSE450; KYSE-450, KYSE450, mean of three experiments) of the same molecule?
A: Its GI50 is 1040 nM.

Q: And the GI50 (KYSE70; KYSE-70, KYSE70, 1st experiment)?
A: Its GI50 is 33 nM.

Q: What about the GI50 (KYSE70; KYSE-70, KYSE70, 2nd experiment) of the same molecule?
A: The GI50 was 27 nM.

Q: What about the GI50 (KYSE70; KYSE-70, KYSE70, 3rd experiment) of the same molecule?
A: Its GI50 is 29 nM.

Q: And the GI50 (KYSE70; KYSE-70, KYSE70, mean of three experiments)?
A: Its GI50 is 30 nM.

Q: What about the GI50 (KYSE510; KYSE-510, KYSE510, 1st experiment) of the same molecule?
A: The GI50 was 55 nM.

Q: And the GI50 (KYSE510; KYSE-510, KYSE510, 2nd experiment)?
A: Its GI50 is 6 nM.

Q: And the GI50 (KYSE510; KYSE-510, KYSE510, 3rd experiment)?
A: Its GI50 is 38 nM.

Q: And the GI50 (KYSE510; KYSE-510, KYSE510, mean of three experiments)?
A: The GI50 was 33 nM.

Q: And the GI50 (KYSE150; KYSE-150, KYSE150, 1st experiment)?
A: The GI50 was 40 nM.

Q: What about the GI50 (KYSE150; KYSE-150, KYSE150, 2nd experiment) of the same molecule?
A: The GI50 was 62 nM.

Q: And the GI50 (KYSE150; KYSE-150, KYSE150, 3rd experiment)?
A: Its GI50 is 38 nM.

Q: What about the GI50 (KYSE150; KYSE-150, KYSE150, mean of three experiments) of the same molecule?
A: Its GI50 is 47 nM.

Q: What about the GI50 (Detroit 562; Detroit 562, Detroit 562, 1st experiment) of the same molecule?
A: Its GI50 is 718 nM.

Q: What about the GI50 (Detroit 562; Detroit 562, Detroit 562, 2nd experiment) of the same molecule?
A: The GI50 was 707 nM.

Q: And the GI50 (Detroit 562; Detroit 562, Detroit 562, 3rd experiment)?
A: Its GI50 is 769 nM.

Q: And the GI50 (Detroit 562; Detroit 562, Detroit 562, mean of three experiments)?
A: The GI50 was 731 nM.

Q: What about the GI50 (KYSE140; KYSE-140, KYSE140, 1st experiment) of the same molecule?
A: Its GI50 is 484 nM.

Q: And the GI50 (KYSE140; KYSE-140, KYSE140, 2nd experiment)?
A: Its GI50 is 804 nM.

Q: And the GI50 (KYSE140; KYSE-140, KYSE140, 3rd experiment)?
A: The GI50 was 492 nM.

Q: What about the GI50 (KYSE140; KYSE-140, KYSE140, mean of three experiments) of the same molecule?
A: The GI50 was 593 nM.
